Inconclusive results and toxic doses are left out.
Test system: P388 leukemia ip, CD2F1 mice, survival T/C
Test: NCI In Vivo Anticancer Drug Screen. Data for tumor model P388 Leukemia (intraperitoneal) in CD2F1 (CDF1) mice
Settings: endpoint: median survival time, higher = longer survival
Summary of the method: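 Mice carrying the transplanted tumor received test compound or vehicle. Survival was recorded in each group, and the value is the treated-group measurement divided by that of the vehicle-treated control group.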

[1] = dose: 50.0 mg/kg/injection, schedule: Q01DX009 (ip), vehicle: saline with Tween-80
[2] = dose: 100.0 mg/kg/injection, schedule: Q01DX009 (ip), vehicle: saline with Tween-80
[3] = dose: 200.0 mg/kg/injection, schedule: Q01DX009 (ip), vehicle: saline with Tween-80
[4] = dose: 100.0 mg/kg/injection, schedule: Q04DX002 (ip), vehicle: saline with Tween-80
[5] = dose: 200.0 mg/kg/injection, schedule: Q04DX002 (ip), vehicle: saline with Tween-80
[6] = dose: 400.0 mg/kg/injection, schedule: Q04DX002 (ip), vehicle: saline with Tween-80
[7] = dose: 50.0 mg/kg/injection, schedule: Q01DX005 (ip), vehicle: saline with Tween-80
[8] = dose: 100.0 mg/kg/injection, schedule: Q01DX005 (ip), vehicle: saline with Tween-80
[9] = dose: 200.0 mg/kg/injection, schedule: Q01DX005 (ip), vehicle: saline with Tween-80
[10] = dose: 60.0 mg/kg/injection, schedule: Q01DX005 (ip), vehicle: saline with Tween-80
[11] = dose: 120.0 mg/kg/injection, schedule: Q01DX005 (ip), vehicle: saline with Tween-80
[12] = dose: 240.0 mg/kg/injection, schedule: Q01DX005 (ip), vehicle: saline with Tween-80
[13] = dose: 50.0 mg/kg/injection, schedule: Q01DX009 (ip), vehicle: saline
[14] = dose: 100.0 mg/kg/injection, schedule: Q01DX009 (ip), vehicle: saline
[15] = dose: 12.5 mg/kg/injection, schedule: Q01DX009 (ip), vehicle: saline with Tween-80
[16] = dose: 25.0 mg/kg/injection, schedule: Q01DX009 (ip), vehicle: saline with Tween-80
[17] = dose: 100.0 mg/kg/injection, schedule: Q01DX001 (ip), vehicle: Klucel (hydroxypropylcellulose) (HPC)
[18] = dose: 200.0 mg/kg/injection, schedule: Q01DX001 (ip), vehicle: Klucel (hydroxypropylcellulose) (HPC)

With `CCCCOc1ccc(Nc2c(C(=O)OCC)cnc3cc4c(cc23)OCO4)cc1` the T/C (dose: 60.0 mg/kg/injection, schedule: Q01DX005 (ip), vehicle: Klucel (hydroxypropylcellulose) (HPC)) was 97 % of control, the T/C (dose: 120.0 mg/kg/injection, schedule: Q01DX005 (ip), vehicle: Klucel (hydroxypropylcellulose) (HPC)) was 95 % of control and the T/C (dose: 240.0 mg/kg/injection, schedule: Q01DX005 (ip), vehicle: Klucel (hydroxypropylcellulose) (HPC)) was 97 % of control.
With `CCCCCCC(=O)/C=C/c1ccc(OC)c(OC)c1` the T/C [1] was 107 % of control, the T/C [2] was 114 % of control and the T/C [3] was 115 % of control.
In the case of `N#Cc1c(=O)n(CCO)nc2c3ccccc3c3ccccc3c12`, the T/C [4] is reported as 97 % of control and the T/C [5] is reported as 88 % of control.
With `CC(=O)OC1CCC2(C)C(=CCC3C2CCC2(C)C3CC3C(c4ccccc4)=NC(c4ccccc4)C32C(C)=O)C1` (configuration not stated) the T/C (dose: 100.0 mg/kg/injection, schedule: Q01DX001 (ip), vehicle: saline with Tween-80) was 93 % of control, the T/C [4] was 108 % of control and the T/C (dose: 200.0 mg/kg/injection, schedule: Q01DX001 (ip), vehicle: saline with Tween-80) was 91 % of control. The T/C [5] was 100 % of control, the T/C (dose: 400.0 mg/kg/injection, schedule: Q01DX001 (ip), vehicle: saline with Tween-80) was 90 % of control and the T/C [6] was 105 % of control.
For `NC(CCC(=O)O)C(=O)NC(Cc1c[nH]c2ccccc12)C(=O)O` (configuration not stated), the T/C [7] was 103 % of control, the T/C [8] was 96 % of control and the T/C [9] was 105 % of control.
`O=C1OCC/C1=C\NCCCN/C=C1\CCOC1=O` was tested, and the T/C [10] was 107 % of control, the T/C [11] was 100 % of control and the T/C [12] was 105 % of control.
`O=C(Nc1ccc(Nc2ccncc2)cc1)c1ccc([N+](=O)[O-])cc1` was tested, and the T/C (dose: 100.0 mg/kg/injection, schedule: Q01DX009 (ip), vehicle: Klucel (hydroxypropylcellulose) (HPC)) was 90 % of control, the T/C (dose: 200.0 mg/kg/injection, schedule: Q01DX009 (ip), vehicle: Klucel (hydroxypropylcellulose) (HPC)) was 100 % of control and the T/C (dose: 400.0 mg/kg/injection, schedule: Q01DX009 (ip), vehicle: Klucel (hydroxypropylcellulose) (HPC)) was 90 % of control.
In the case of `COc1ccc(OC)c(N=Cc2ccc(C=Nc3cc(OC)ccc3OC)cc2)c1`, the T/C [13] is reported as 101 % of control and the T/C [14] is reported as 101 % of control.
In the case of `CCSCCCCSCC`, the T/C [1] is reported as 100 % of control, the T/C [2] is reported as 109 % of control and the T/C [3] is reported as 113 % of control.
In the case of `CCOC(=O)C([NH-])C([NH-])C(=O)OCC.[Cl][Pt+2][Cl]` (configuration not stated), the T/C (dose: 12.5 mg/kg/injection, schedule: Q04DX002 (ip), vehicle: saline with Tween-80) is reported as 163 % of control and the T/C (dose: 25.0 mg/kg/injection, schedule: Q04DX002 (ip), vehicle: saline with Tween-80) is reported as 164 % of control.
For `Fc1ccc(CN2COc3c(ccc4cccnc34)C2)c(F)c1`, the T/C (dose: 100.0 mg/kg/injection, schedule: Q04DX003 (ip), vehicle: Klucel (hydroxypropylcellulose) (HPC)) was 95 % of control, the T/C (dose: 200.0 mg/kg/injection, schedule: Q04DX003 (ip), vehicle: Klucel (hydroxypropylcellulose) (HPC)) was 112 % of control and the T/C (dose: 400.0 mg/kg/injection, schedule: Q04DX003 (ip), vehicle: Klucel (hydroxypropylcellulose) (HPC)) was 89 % of control.
With `c1ccc2sc(CN(Cc3nc4ccccc4s3)Cc3nc4ccccc4s3)nc2c1` the T/C [7] was 103 % of control, the T/C [8] was 101 % of control and the T/C [9] was 100 % of control.
In the case of `CCN(CC)OCC=C(C)CCC=C(C)C` (mixture of isomers), the T/C [4] is reported as 111 % of control, the T/C [5] is reported as 109 % of control and the T/C [6] is reported as 108 % of control.
For `Cc1c2cc[n+](C)c(C)c2cc2c1[nH]c1ccccc12`, the T/C (dose: 1.56 mg/kg/injection, schedule: Q04DX002 (ip), vehicle: water) was 100 % of control, the T/C (dose: 3.12 mg/kg/injection, schedule: Q04DX002 (ip), vehicle: water) was 115 % of control and the T/C (dose: 6.25 mg/kg/injection, schedule: Q04DX002 (ip), vehicle: water) was 117 % of control. For the same compound, the T/C (dose: 10.0 mg/kg/injection, schedule: Q04DX002 (ip), vehicle: water) was 115 % of control, the T/C (dose: 12.5 mg/kg/injection, schedule: Q04DX002 (ip), vehicle: water) was 118 % of control and the T/C (dose: 20.0 mg/kg/injection, schedule: Q04DX002 (ip), vehicle: water) was 115 % of control. The T/C (dose: 25.0 mg/kg/injection, schedule: Q04DX002 (ip), vehicle: water) was 115 % of control, the T/C (dose: 40.0 mg/kg/injection, schedule: Q04DX002 (ip), vehicle: water) was 115 % of control and the T/C (dose: 50.0 mg/kg/injection, schedule: Q04DX002 (ip), vehicle: water) was 106 % of control.
With `O=C(O)c1cc(-c2ccccc2)[nH]c1-c1ccccc1` the T/C [15] was 103 % of control, the T/C [16] was 106 % of control and the T/C [1] was 90 % of control.
In the case of `CN(CCOc1c(I)cc(I)cc1I)CC(O)C(O)C(O)C(O)CO` (configuration not stated), the T/C (dose: 50.0 mg/kg/injection, schedule: Q01DX001 (ip), vehicle: Klucel (hydroxypropylcellulose) (HPC)) is reported as 110 % of control, the T/C (dose: 50.0 mg/kg/injection, schedule: Q01DX009 (ip), vehicle: Klucel (hydroxypropylcellulose) (HPC)) is reported as 94 % of control and the T/C [17] is reported as 108 % of control. The T/C [18] was 109 % of control.
`[Cl][Sn]1([c]2ccccc2)[O]CCNCC[O]1` was tested, and the T/C (dose: 25.0 mg/kg/injection, schedule: Q01DX009 (ip), vehicle: suspension in saline) was 97 % of control, the T/C [13] was 120 % of control and the T/C (dose: 50.0 mg/kg/injection, schedule: Q01DX009 (ip), vehicle: suspension in saline) was 109 % of control. For the same compound, the T/C (dose: 100.0 mg/kg/injection, schedule: Q01DX009 (ip), vehicle: suspension in saline) was 109 % of control.
In the case of `Cc1cc2nnnn2c2ccccc12`, the T/C [13] is reported as 96 % of control, the T/C [14] is reported as 99 % of control and the T/C (dose: 200.0 mg/kg/injection, schedule: Q01DX009 (ip), vehicle: saline) is reported as 95 % of control.
`O=C1N[C@@H](Cc2ccccc2)C(=O)N2CSC[C@H]12` was tested, and the T/C [17] was 99 % of control, the T/C [18] was 102 % of control and the T/C (dose: 400.0 mg/kg/injection, schedule: Q01DX001 (ip), vehicle: Klucel (hydroxypropylcellulose) (HPC)) was 102 % of control.
With `CCCCCOCc1cc(C)no1` the T/C [10] was 104 % of control, the T/C [11] was 109 % of control and the T/C [12] was 104 % of control.
For `Cc1cc([N+](=O)[O-])ccc1N=Nc1ccc(O)c(C(=O)O)c1`, the T/C [7] was 105 % of control and the T/C [8] was 95 % of control.
In the case of `NC(N)=N/N=C1\C/C(=N\N=C(N)N)c2ccccc21`, the T/C (dose: 6.25 mg/kg/injection, schedule: Q01DX009 (ip), vehicle: saline with Tween-80) is reported as 99 % of control, the T/C [15] is reported as 97 % of control and the T/C (dose: 25.0 mg/kg/injection, schedule: Q01DX001 (ip), vehicle: saline with Tween-80) is reported as 107 % of control. The T/C [16] was 91 % of control and the T/C (dose: 50.0 mg/kg/injection, schedule: Q01DX001 (ip), vehicle: saline with Tween-80) was 100 % of control.
In the case of `Clc1ccc(-c2cc3cc4c(cc3[nH]2)Sc2ccccc2O4)cc1`, the T/C (dose: 100.0 mg/kg/injection, schedule: Q04DX003 (ip), vehicle: saline) is reported as 86 % of control, the T/C (dose: 200.0 mg/kg/injection, schedule: Q04DX003 (ip), vehicle: saline) is reported as 86 % of control and the T/C (dose: 400.0 mg/kg/injection, schedule: Q04DX003 (ip), vehicle: saline) is reported as 98 % of control.
In the case of `Cc1ccc(S(=O)(=O)N/N=C2\C(=N\NS(=O)(=O)c3ccc(C)cc3)C3c4ccccc4C2c2ccccc23)cc1`, the T/C [10] is reported as 105 % of control, the T/C [11] is reported as 96 % of control and the T/C [12] is reported as 95 % of control.
In the case of `Cc1ccc(S(=O)c2ccccc2C(O)(C(F)(F)F)C(F)(F)F)cc1` (configuration not stated), the T/C (dose: 50.0 mg/kg/injection, schedule: Q01DX005 (ip), vehicle: Klucel (hydroxypropylcellulose) (HPC)) is reported as 99 % of control, the T/C (dose: 100.0 mg/kg/injection, schedule: Q01DX005 (ip), vehicle: Klucel (hydroxypropylcellulose) (HPC)) is reported as 99 % of control and the T/C (dose: 200.0 mg/kg/injection, schedule: Q01DX005 (ip), vehicle: Klucel (hydroxypropylcellulose) (HPC)) is reported as 92 % of control.
`N=c1c2c(C(N)=O)cn(C3OC(CO)C(O)C3O)c2ncn1N` (configuration not stated) was tested, and the T/C (dose: 50.0 mg/kg/injection, schedule: Q01DX005 (ip), vehicle: water) was 166 % of control.
With `Cc1cc(NCCCNCCCNc2cc(C)nc3cc(N)ccc23)c2ccc(N)cc2n1` the T/C (dose: 12.5 mg/kg/injection, schedule: Q01DX009 (ip), vehicle: other) was 160 % of control.
In the case of `O=S(=O)(O)O.[Co+3].[Co+3].[NH2-].[NH2-].[NH2-].[NH2-].[NH2-].[NH2-].[NH2-].[NH2-].[NH2-].[NH2-].[O-][O-]`, the T/C (dose: 25.0 mg/kg/injection, schedule: Q01DX009 (ip), vehicle: saline) is reported as 96 % of control.

Reference: PubChem BioAssay AID330 (DTP/NCI, 2004)
